# Patent US9993494B2, “Compositions and methods for treating fibrotic disease” (eFFECTOR Therapeutics, Inc., priority 2014, dated 2018)
# System: normal human lung fibroblasts
# Assay: Ribosomal profiling: translational efficiency in TGFβ-treated fibroblasts
# Format: cell-based
# Settings: TGFβ-treated fibroblasts
# How it was run: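 Genome-wide RPF and total RNA libraries (ARTseq, RNA-Seq) were made from lysates of cycloheximide-treated, PBS-washed cells. After trimming and human-genome mapping, per-gene coding-region counts were compared between RPF and RNA for translational efficiency. Genes scoring low in either fraction were dropped.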
compound,measurement,setting,value
"CC(C=CC(=O)NO)=CC(C)C(=O)c1ccc(N(C)C)cc1 (stereo not drawn) [TSA, 7-[4-(dimethylamino)phenyl]-N-hydroxy-4,6-dimethyl-7-oxohepta-2,4-dienamide]",renormalizing the translational profile of DNASE1L1,ENSG00000013563,− (− = <0.9)
same,renormalizing the translational profile of KITLG,ENSG00000049130,+ (+ = 0.9 to 1.5)
same,renormalizing the translational profile of ADAMTS6,ENSG00000049192,− (− = <0.9)
same,renormalizing the translational profile of LETMD1,ENSG00000050426,− (− = <0.9)
same,renormalizing the translational profile of PLEKHA5,ENSG00000052126,− (− = <0.9)
same,renormalizing the translational profile of EIF4B,ENSG00000063046,+ (+ = 0.9 to 1.5)
same,renormalizing the translational profile of RPL18,ENSG00000063177,− (− = <0.9)
same,renormalizing the translational profile of HIPK2,ENSG00000064393,− (− = <0.9)
same,renormalizing the translational profile of ASPM,ENSG00000066279,+ (+ = 0.9 to 1.5)
same,renormalizing the translational profile of RASSF1,ENSG00000068028,− (− = <0.9)
same,renormalizing the translational profile of PABPC1,ENSG00000070756,− (− = <0.9)
same,renormalizing the translational profile of RPL31,ENSG00000071082,− (− = <0.9)
same,renormalizing the translational profile of PLD1,ENSG00000075651,− (− = <0.9)
same,renormalizing the translational profile of EDN1,ENSG00000078401,− (− = <0.9)
same,renormalizing the translational profile of AURKA,ENSG00000087586,++ (++ = 1.5 to 2.0)
same,renormalizing the translational profile of EPB41L1,ENSG00000088367,+ (+ = 0.9 to 1.5)
same,renormalizing the translational profile of RPL6,ENSG00000089009,− (− = <0.9)
same,renormalizing the translational profile of P2RX7,ENSG00000089041,++ (++ = 1.5 to 2.0)
same,renormalizing the translational profile of KDM2B,ENSG00000089094,− (− = <0.9)
same,renormalizing the translational profile of RPLP0,ENSG00000089157,− (− = <0.9)
same,renormalizing the translational profile of IGBP1,ENSG00000089289,− (− = <0.9)
same,renormalizing the translational profile of IRAK3,ENSG00000090376,+ (+ = 0.9 to 1.5)
same,renormalizing the translational profile of PABPC4,ENSG00000090621,− (− = <0.9)
same,renormalizing the translational profile of FMO2,ENSG00000094963,+ (+ = 0.9 to 1.5)
same,renormalizing the translational profile of ACOT7,ENSG00000097021,− (− = <0.9)
same,renormalizing the translational profile of ATP5D,ENSG00000099624,− (− = <0.9)
same,renormalizing the translational profile of LGALS1,ENSG00000100097,− (− = <0.9)
same,renormalizing the translational profile of EIF3L,ENSG00000100129,− (− = <0.9)
same,renormalizing the translational profile of RPL3,ENSG00000100316,− (− = <0.9)
same,renormalizing the translational profile of CEP192,ENSG00000101639,− (− = <0.9)
same,renormalizing the translational profile of AMMECR1,ENSG00000101935,− (− = <0.9)
same,renormalizing the translational profile of PLP2,ENSG00000102007,− (− = <0.9)
same,renormalizing the translational profile of EIF3E,ENSG00000104408,− (− = <0.9)
same,renormalizing the translational profile of EEF1D,ENSG00000104529,− (− = <0.9)
same,renormalizing the translational profile of C19orf53,ENSG00000104979,− (− = <0.9)
same,renormalizing the translational profile of GLTSCR2,ENSG00000105373,+ (+ = 0.9 to 1.5)
same,renormalizing the translational profile of RAB3D,ENSG00000105514,++ (++ = 1.5 to 2.0)
same,renormalizing the translational profile of RPL18A,ENSG00000105640,− (− = <0.9)
same,renormalizing the translational profile of COMP,ENSG00000105664,− (− = <0.9)
same,renormalizing the translational profile of GLCCI1,ENSG00000106415,+ (+ = 0.9 to 1.5)
same,renormalizing the translational profile of CORO2A,ENSG00000106789,− (− = <0.9)
same,renormalizing the translational profile of GDF10,ENSG00000107623,+ (+ = 0.9 to 1.5)
same,renormalizing the translational profile of RPL28,ENSG00000108107,− (− = <0.9)
same,renormalizing the translational profile of RPL19,ENSG00000108298,− (− = <0.9)
same,renormalizing the translational profile of RASD1,ENSG00000108551,− (− = <0.9)
same,renormalizing the translational profile of NAT9,ENSG00000109065,− (− = <0.9)
same,renormalizing the translational profile of RPL34,ENSG00000109475,− (− = <0.9)
same,renormalizing the translational profile of CRYAB,ENSG00000109846,− (− = <0.9)
same,renormalizing the translational profile of GAPDH,ENSG00000111640,− (− = <0.9)
same,renormalizing the translational profile of C12orf57,ENSG00000111678,+ (+ = 0.9 to 1.5)
same,renormalizing the translational profile of MDFI,ENSG00000112559,− (− = <0.9)
same,renormalizing the translational profile of HBEGF,ENSG00000113070,− (− = <0.9)
same,renormalizing the translational profile of RPL24,ENSG00000114391,− (− = <0.9)
same,renormalizing the translational profile of EEF1B2,ENSG00000114942,− (− = <0.9)
same,renormalizing the translational profile of IFIH1,ENSG00000115267,− (− = <0.9)
same,renormalizing the translational profile of DPH5,ENSG00000117543,− (− = <0.9)
same,renormalizing the translational profile of PPL,ENSG00000118898,− (− = <0.9)
same,renormalizing the translational profile of PLEKHG1,ENSG00000120278,− (− = <0.9)
same,renormalizing the translational profile of LIAS,ENSG00000121897,− (− = <0.9)
same,renormalizing the translational profile of GPSM2,ENSG00000121957,++ (++ = 1.5 to 2.0)
same,renormalizing the translational profile of RPL21,ENSG00000122026,− (− = <0.9)
same,renormalizing the translational profile of RPL5,ENSG00000122406,− (− = <0.9)
same,renormalizing the translational profile of INHBA,ENSG00000122641,− (− = <0.9)
same,renormalizing the translational profile of CIT,ENSG00000122966,+++ (+++ = >2.0)
same,renormalizing the translational profile of RPL23,ENSG00000125691,− (− = <0.9)
same,renormalizing the translational profile of LAMP5,ENSG00000125869,− (− = <0.9)
same,renormalizing the translational profile of NECAB3,ENSG00000125967,− (− = <0.9)
same,renormalizing the translational profile of COX7C,ENSG00000127184,− (− = <0.9)
same,renormalizing the translational profile of LIF,ENSG00000128342,− (− = <0.9)
same,renormalizing the translational profile of MTUS1,ENSG00000129422,− (− = <0.9)
same,renormalizing the translational profile of ARHGEF6,ENSG00000129675,− (− = <0.9)
same,renormalizing the translational profile of RPL36,ENSG00000130255,− (− = <0.9)
same,renormalizing the translational profile of GDF15,ENSG00000130513,− (− = <0.9)
same,renormalizing the translational profile of ASS1,ENSG00000130707,− (− = <0.9)
same,renormalizing the translational profile of EIF2S3,ENSG00000130741,− (− = <0.9)
same,renormalizing the translational profile of RPL27,ENSG00000131469,− (− = <0.9)
same,renormalizing the translational profile of MATN3,ENSG00000132031,− (− = <0.9)
same,renormalizing the translational profile of PPARG,ENSG00000132170,+ (+ = 0.9 to 1.5)
same,renormalizing the translational profile of KDM6B,ENSG00000132510,− (− = <0.9)
same,renormalizing the translational profile of RARRES3,ENSG00000133321,− (− = <0.9)
same,renormalizing the translational profile of BIVM,ENSG00000134897,− (− = <0.9)
same,renormalizing the translational profile of ATP5G2,ENSG00000135390,− (− = <0.9)
same,renormalizing the translational profile of KRT7,ENSG00000135480,− (− = <0.9)
same,renormalizing the translational profile of HNRNPA1,ENSG00000135486,− (− = <0.9)
same,renormalizing the translational profile of IL6,ENSG00000136244,− (− = <0.9)
same,renormalizing the translational profile of RPL35,ENSG00000136942,− (− = <0.9)
same,renormalizing the translational profile of NOV,ENSG00000136999,+ (+ = 0.9 to 1.5)
same,renormalizing the translational profile of IER3,ENSG00000137331,− (− = <0.9)
same,renormalizing the translational profile of DDX60,ENSG00000137628,− (− = <0.9)
same,renormalizing the translational profile of RPLP1,ENSG00000137818,− (− = <0.9)
same,renormalizing the translational profile of PAQR5,ENSG00000137819,− (− = <0.9)
same,renormalizing the translational profile of AOX1,ENSG00000138356,++ (++ = 1.5 to 2.0)
same,renormalizing the translational profile of FGF5,ENSG00000138675,− (− = <0.9)
same,renormalizing the translational profile of PDE5A,ENSG00000138735,− (− = <0.9)
same,renormalizing the translational profile of GAS2L3,ENSG00000139354,+ (+ = 0.9 to 1.5)
same,renormalizing the translational profile of DIAPH3,ENSG00000139734,− (− = <0.9)
same,renormalizing the translational profile of MYO19,ENSG00000141140,− (− = <0.9)
same,renormalizing the translational profile of RPL13A,ENSG00000142541,− (− = <0.9)
same,renormalizing the translational profile of RPL11,ENSG00000142676,− (− = <0.9)
same,renormalizing the translational profile of ACTA1,ENSG00000143632,− (− = <0.9)
same,renormalizing the translational profile of PLEKHA6,ENSG00000143850,+ (+ = 0.9 to 1.5)
same,renormalizing the translational profile of RPL32,ENSG00000144713,− (− = <0.9)
same,renormalizing the translational profile of RPL37,ENSG00000145592,− (− = <0.9)
same,renormalizing the translational profile of BTF3,ENSG00000145741,− (− = <0.9)
same,renormalizing the translational profile of HIGD2A,ENSG00000146066,− (− = <0.9)
same,renormalizing the translational profile of CREB5,ENSG00000146592,− (− = <0.9)
same,renormalizing the translational profile of DENND2A,ENSG00000146966,− (− = <0.9)
same,renormalizing the translational profile of RPL10,ENSG00000147403,+ (+ = 0.9 to 1.5)
same,renormalizing the translational profile of EIF3H,ENSG00000147677,− (− = <0.9)
same,renormalizing the translational profile of RPL7A,ENSG00000148303,− (− = <0.9)
same,renormalizing the translational profile of EIF3M,ENSG00000149100,− (− = <0.9)
same,renormalizing the translational profile of FAU,ENSG00000149806,− (− = <0.9)
same,renormalizing the translational profile of CCDC102B,ENSG00000150636,+ (+ = 0.9 to 1.5)
same,renormalizing the translational profile of FRMD4A,ENSG00000151474,+ (+ = 0.9 to 1.5)
same,renormalizing the translational profile of HOMER1,ENSG00000152413,− (− = <0.9)
same,renormalizing the translational profile of PLEKHH2,ENSG00000152527,− (− = <0.9)
same,renormalizing the translational profile of ANKH,ENSG00000154122,− (− = <0.9)
same,renormalizing the translational profile of ABCA6,ENSG00000154262,− (− = <0.9)
same,renormalizing the translational profile of OBSCN,ENSG00000154358,+++ (+++ = >2.0)
same,renormalizing the translational profile of ADAMTS5,ENSG00000154736,− (− = <0.9)
same,renormalizing the translational profile of OXA1L,ENSG00000155463,− (− = <0.9)
same,renormalizing the translational profile of C9orf85,ENSG00000155621,− (− = <0.9)
same,renormalizing the translational profile of RPL30,ENSG00000156482,− (− = <0.9)
same,renormalizing the translational profile of EEF1A1,ENSG00000156508,+ (+ = 0.9 to 1.5)
same,renormalizing the translational profile of NRG1,ENSG00000157168,− (− = <0.9)
same,renormalizing the translational profile of ADAMTS4,ENSG00000158859,− (− = <0.9)
same,renormalizing the translational profile of RPL8,ENSG00000161016,− (− = <0.9)
same,renormalizing the translational profile of RPL26,ENSG00000161970,− (− = <0.9)
same,renormalizing the translational profile of RPL29,ENSG00000162244,− (− = <0.9)
same,renormalizing the translational profile of CAMK2N1,ENSG00000162545,− (− = <0.9)
same,renormalizing the translational profile of IGFBP7,ENSG00000163453,− (− = <0.9)
same,renormalizing the translational profile of RPL22L1,ENSG00000163584,− (− = <0.9)
